Data as given in article PMC12668308, “A Novel Antimalarial Agent that Inhibits Protein Synthesis in Plasmodium falciparum” (Angewandte Chemie (International Ed. in English), 2025).

Key:
Test in all cases: iSPP profiling, P. falciparum lysate
Assay type in all cases: binding, Plasmodium falciparum
[1] = system: 40S ribosomal protein S24 (W7KAD9)
Method: (§1) P. falciparum NF54 lysates were extracted as described in ^[26^] . The parasite asynchronous culture was extracted once 3-5% parasitemia was reached. Saponin lysis was done as described in 2.2.10. Once the parasite pellet was obtained, 2.5 volumes of ice-cold lysis buffer (50 mM Tris/HCl pH 7.5 (Avantor), 5% glycerol (Sigma-Aldrich), 150 mM NaCl (Carl Roth), 1.5 mM MgCl2 (Sigma-Aldrich), 1 mM DTT (Carl Roth), 0.8% IGEPAL CA-630 (Sigma-Aldrich), 1X Halt Protease and Phosphatase Inhibitor-Cocktails EDTA-free (Thermo Fisher Scientific)) was added to the parasite pellet. The lysate solution was subjected to three cycles of flash freeze-thaw with liquid nitrogen and ddH2O at RT. The lysates were centrifuged at 20,000 g for 20 minutes at 4 °C. The soluble protein fraction (supernatant) was collected and the protein content was quantified using the BCA assay (Pierce™ BCA Protein Assay Kit, Thermo Fisher Scientific). The lysate was stored at -80 °C until further use.
(§2) The P. falciparum lysate was thawed on ice and diluted to 0.8 mg/mL. […] Subsequently, the samples were incubated at room temperature for 30 minutes using a rotating mixer. After distribution into a 96-well plate, the samples were treated with increasing concentrations of A.E.A. (v/v) ranging from 14% to 28% (14, 16, 18, 20, 22, 24, 26, and 28%). Following a 20-minute incubation at 37°C with shaking at 750 rpm, the samples were centrifuged at 4400 g for 35 minutes to remove precipitated proteins. The soluble fractions were then pooled in equal volumes into a single sample using the Bravo Automated Liquid Handling Platform. The pooled samples were subsequently prepared for LC-MS/MS analysis.
(§3) The raw LFQ-DIA intensity values of biological replicates across all conditions were normalized to the median abundance using Excel. The normalized values were then log2 transformed in Perseus (v2.0.10.0).^[58^] Missing values were imputed from a normal distribution (width 0.3, down shift 1.5), and p-values were obtained using a two-sample t-test over replicates with a permutation-based false discovery rate correction (FDR 0.05). Volcano plots were generated in RStudio using the EnhancedVolcano package (v. 1.20.0), ^[59^] plotting proteins by statistical significance (y-axis: –Log10 p-value) versus the magnitude of change (x-axis: log2 fold change of protein intensities for each compound condition relative to the vehicle control). The heatmap was generated in Perseus (v2.0.10.0). Dose-dependent curves were generated using normalized protein intensity values, expressed as a ratio to the vehicle control. Plots were created in GraphPad Prism (v8.3.0) using a nonlinear regression model.

[2] = system: 40S ribosomal protein S4 (W7JT49)
Method: as §1, §2, §3

[3] = system: 60S ribosomal protein L17 (W7KA36)
Method: as §1, §2, §3

[4] = system: 60S ribosomal protein L18a (W7JPN9)
Method: as §1, §2, §3

[5] = system: 60S ribosomal protein L22 (W7K6D9)
Method: as §1, §2, §3

[6] = system: 60S ribosomal protein L4 (W7KB54)
Method: as §1, §2, §3

[7] = system: ATP-dependent zinc metalloprotease FTSH (W7JKR1)
Method: as §1, §2, §3

DnaJ protein (W7JVI6) = system: DnaJ protein (W7JVI6)
Method: as §1, §2, §3

[8] = system: Eukaryotic translation initiation factor 3 subunit A (W7KD62)
Method: as §1, §2, §3

[9] = system: FACT complex subunit (W7KAC4)
Method: as §1, §2, §3

[10] = system: PI3K/PI4K catalytic domain-containing protein (W7K7J6)
Method: as §1, §2, §3

[11] = system: Phospholipid-transporting ATPase (W7JSF3;W7K4C4)
Method: as §1, §2, §3

[12] = system: Ubiquitin-protein ligase (W7JWT0)
Method: as §1, §2, §3

[13] = system: Uncharacterized protein (W7KIB1)
Method: as §1, §2, §3

[14] = system: dolichyl-diphosphooligosaccharide--protein glycotransferase (W7K3H0)
Method: as §1, §2, §3

How did the log2FC ([1]; 10 µM) turn out when `CN1CCN(Cc2ccc(O)c(NC(=O)c3cccc(Oc4cc(C(F)(F)F)ccn4)c3)c2)CC1` [Compound 31, N-(2-hydroxy-5-((4-methylpiperazin-1-yl)methyl)phenyl)-3-((4-(trifluoromethyl)pyridin-2-yl)oxy)benzamide] was run?
Its log2FC is 0.51.

And the log2FC ([1]; 50 µM)?
The log2FC was 0.70.

What about the log2FC ([1]; 100 µM) of the same compound?
Its log2FC is 0.57.

And the log2FC ([1]; 10^-2 µM)?
Its log2FC is 0.44.

What about the log2FC ([1]; 10^-3 µM) of the same compound?
The log2FC was 0.27.

And the log2FC ([2]; 10 µM)?
The log2FC was 0.53.

And the log2FC ([2]; 50 µM)?
The log2FC was 0.68.

What about the log2FC ([2]; 100 µM) of the same compound?
The log2FC was 0.62.

And the log2FC ([2]; 10^-2 µM)?
Its log2FC is 0.39.

What about the log2FC ([2]; 10^-3 µM) of the same compound?
Its log2FC is 0.19.

And the log2FC ([3]; 10 µM)?
The log2FC was 0.35.

What about the log2FC ([3]; 50 µM) of the same compound?
The log2FC was 0.49.

What about the log2FC ([3]; 100 µM) of the same compound?
The log2FC was 0.40.

What about the log2FC ([3]; 10^-2 µM) of the same compound?
Its log2FC is 0.30.

What about the log2FC ([3]; 10^-3 µM) of the same compound?
The log2FC was 0.17.

What about the log2FC ([4]; 10 µM) of the same compound?
The log2FC was 0.72.

What about the log2FC ([4]; 50 µM) of the same compound?
Its log2FC is 1.09.

And the log2FC ([4]; 100 µM)?
Its log2FC is 0.81.

What about the log2FC ([4]; 10^-2 µM) of the same compound?
The log2FC was 0.75.

What about the log2FC ([4]; 10^-3 µM) of the same compound?
Its log2FC is 0.60.

And the log2FC ([5]; 10 µM)?
The log2FC was 0.72.

What about the log2FC ([5]; 50 µM) of the same compound?
Its log2FC is 0.75.

What about the log2FC ([5]; 100 µM) of the same compound?
Its log2FC is 0.65.

And the log2FC ([5]; 10^-2 µM)?
The log2FC was 0.61.

And the log2FC ([5]; 10^-3 µM)?
Its log2FC is 0.18.

And the log2FC ([6]; 10 µM)?
The log2FC was 0.49.

And the log2FC ([6]; 50 µM)?
Its log2FC is 0.63.

And the log2FC ([6]; 100 µM)?
Its log2FC is 0.50.

What about the log2FC ([6]; 10^-2 µM) of the same compound?
Its log2FC is 0.41.

What about the log2FC ([6]; 10^-3 µM) of the same compound?
Its log2FC is 0.21.

And the log2FC ([7]; 10 µM)?
Its log2FC is 0.49.

What about the log2FC ([7]; 50 µM) of the same compound?
Its log2FC is 0.64.

What about the log2FC ([7]; 100 µM) of the same compound?
The log2FC was 0.46.

And the log2FC ([7]; 10^-2 µM)?
Its log2FC is 0.46.

And the log2FC ([7]; 10^-3 µM)?
Its log2FC is 0.20.

And the log2FC (DnaJ protein (W7JVI6); 10 µM)?
Its log2FC is 0.38.

And the log2FC (DnaJ protein (W7JVI6); 50 µM)?
Its log2FC is 0.51.

What about the log2FC (DnaJ protein (W7JVI6); 100 µM) of the same compound?
The log2FC was 0.40.

And the log2FC (DnaJ protein (W7JVI6); 10^-2 µM)?
The log2FC was 0.30.

What about the log2FC (DnaJ protein (W7JVI6); 10^-3 µM) of the same compound?
Its log2FC is 0.12.

What about the log2FC ([8]; 10 µM) of the same compound?
Its log2FC is 0.35.

What about the log2FC ([8]; 50 µM) of the same compound?
The log2FC was 0.45.

What about the log2FC ([8]; 100 µM) of the same compound?
Its log2FC is 0.31.

And the log2FC ([8]; 10^-2 µM)?
The log2FC was 0.30.

What about the log2FC ([8]; 10^-3 µM) of the same compound?
Its log2FC is 0.15.

And the log2FC ([9]; 10 µM)?
The log2FC was 0.30.

And the log2FC ([9]; 50 µM)?
Its log2FC is 0.55.

And the log2FC ([9]; 100 µM)?
The log2FC was 0.41.

What about the log2FC ([9]; 10^-2 µM) of the same compound?
The log2FC was 0.48.

And the log2FC ([9]; 10^-3 µM)?
The log2FC was 0.30.

What about the log2FC ([10]; 10 µM) of the same compound?
Its log2FC is 0.30.

What about the log2FC ([10]; 50 µM) of the same compound?
The log2FC was 0.44.

And the log2FC ([10]; 100 µM)?
Its log2FC is 0.41.

And the log2FC ([10]; 10^-2 µM)?
The log2FC was 0.42.

What about the log2FC ([10]; 10^-3 µM) of the same compound?
Its log2FC is 0.17.

What about the log2FC ([11]; 10 µM) of the same compound?
The log2FC was 0.33.

What about the log2FC ([11]; 50 µM) of the same compound?
The log2FC was 0.36.

And the log2FC ([11]; 100 µM)?
The log2FC was 0.30.

What about the log2FC ([11]; 10^-2 µM) of the same compound?
Its log2FC is 0.36.

What about the log2FC ([11]; 10^-3 µM) of the same compound?
Its log2FC is 0.20.

And the log2FC ([12]; 10 µM)?
Its log2FC is 0.52.

What about the log2FC ([12]; 50 µM) of the same compound?
Its log2FC is 0.87.

And the log2FC ([12]; 100 µM)?
Its log2FC is 0.59.

And the log2FC ([12]; 10^-2 µM)?
Its log2FC is 0.50.

And the log2FC ([12]; 10^-3 µM)?
The log2FC was 0.25.

And the log2FC ([13]; 10 µM)?
The log2FC was 1.08.

What about the log2FC ([13]; 50 µM) of the same compound?
Its log2FC is 1.03.

What about the log2FC ([13]; 100 µM) of the same compound?
Its log2FC is 0.88.

What about the log2FC ([13]; 10^-2 µM) of the same compound?
Its log2FC is 1.16.

What about the log2FC ([13]; 10^-3 µM) of the same compound?
The log2FC was 0.39.

And the log2FC ([14]; 10 µM)?
The log2FC was 0.53.

What about the log2FC ([14]; 50 µM) of the same compound?
Its log2FC is 0.72.

And the log2FC ([14]; 100 µM)?
The log2FC was 0.44.

And the log2FC ([14]; 10^-2 µM)?
Its log2FC is 0.59.
